Results taken from EP0136586A2, “Novel corticoid derivatives and process for production thereof” (priority 1983, dated 1985).

Key:
edema = assay: Topical anti-inflammatory activity (croton oil ear edema); format: in vivo, Male mice of ddY-strain; settings: for Anti-inflammatory activity ratio (A): ratio against clobetasol 17-propionate (=1), linear regression parallel test method, edema-repressing rate, topical application to mouse ear with croton oil, 5th hour after application; for R=A/B: anti-inflammatory activity ratio (A) divided by thymolytic activity ratio (B)
Protocol: 0.9 % sodium chloride, 0.4 % Tween 80, 0.5 % carboxymethyl cellulose and 0.9 % benzyl alcohol are dissolved or suspended in distilled water, which is used as a suspending medium. The compounds to be tested are dissolved in a mixture of the suspending medium : pyridine : diethyl ether = 1 : 4 : 5 and mixed with equal volume of diethyl ether containing 10 % croton oil and the mixture is used as the test liquid. Commercially available felt having a thickness of 5 mm is cut in 7mm x 7 mm square and adhered to ring tweezers using alkyl-a-cyanoacrylate. The felt is soaked in the test liquid and the liquid is applied to the right ear of the mouse by rubbing it with the felt at a fixed pressure without anesthesia. The left ear is left untreated. At 5th hours after application, mice are killed and both of the ears are cut and weighed. The rate (%) of increase in the weight of right ear against that of left ear is calculated as the edema ratio. Edema ratios obtained on the test compounds are compared with those obtained on control and edema-repressing rate is obtained.

thymus gland = settings: rat, in vivo, sc, 11520 min
Protocol: 2) Experiment on thymolytic action
The compounds to be tested are dissolved in a liquid consisting of croton oil : cotton seed oil : ethanol = 1:89:10 and the solution is used for injection.
The rats are anesthesized by inhalation of ether and 20 ml of air are subcutaneously injected into hypodermic organ at the back of the rats using a thin injection needle to form an oval-shaped air cavity. After the rats recovered from anesthesia they are kept on normal food and water. At 8th days after injection, rats are killed by depletion and dissected. The thymus gland is taken out and the wet weight is measured. Thymus weights obtained on the test compounds are divided with those obtained on control, and thymus gland atrophy rate is obtained.
In each of the experiments on anti-inflammatory activity and thymolytic action, clobetasol 17-propionate and betamethasone 17,21-dipropionate are used standard compounds and anti-inflammatory activity ratio and thymolytic activity ratio against clobetasol 17-propionate are calculated using linear regression parallel test method.

| Compound | Anti-inflammatory activity ratio (A) (edema) | Thymolytic activity ratio (B) (thymus gland) | R=A/B (edema) |
| --- | --- | --- | --- |
| 21-chloro-9a-fluoro-16a-methyl-l,4-pregnadiene-11β,17α-diol-3,6,20-trione 17a-methyl carbonate [Example 8] | 0.51 | – | – |
| 21-chloro-9α-fluoro-16β-mathyl-1,4-pregnadiene-11β,17α-diol-3,6,20-trione 17α-methyl carbonate [Example 2] | 3.0 | 0.018 | – |
| 21-chloro-9α-fluoro-16β-methyl-1,4-pregnadiene-11β,17α-diol-3,6,20-trione 17a-ethyl carbonate [Example 4] | 1.3 | 0.048 | – |
| CCC(=O)OCC(=O)[C@@]1(OC(=O)CC)[C@@H](C)C[C@H]2[C@@H]3CCC4=CC(=O)C=C[C@]4(C)[C@@]3(F)[C@@H](O)C[C@@]21C [Betamethasone 17,21-dipropionate, betamethasone 17,21-dipropionate, reference compound] | 0.080 | 0.030 | 2.7 |
| CCC(=O)O[C@]1(C(=O)CCl)[C@@H](C)C[C@H]2[C@@H]3CCC4=CC(=O)C=C[C@]4(C)[C@@]3(F)[C@@H](O)C[C@@]21C [Clobetasol 17-propionate, clobetasol 17-propionate, reference compound] | – | 1 | 1 |
| CCC(=O)O[C@]1(C(=O)CCl)[C@@H](C)C[C@H]2[C@@H]3CC(=O)C4=CC(=O)C=C[C@]4(C)[C@@]3(F)[C@@H](O)C[C@@]21C [Comparative Example 1, 21-chloro-9α-fluoro-16β-methyl-1,4-pregnadiene-11S,17a-diol-3,6,20-trione 17a-propionate, reference compound] | 0.53 | 0.29 | 1.8 |
| COC(=O)O[C@]1(C(=O)CCl)[C@@H](C)C[C@H]2[C@@H]3CCC4=CC(=O)C=C[C@]4(C)[C@@]3(F)[C@@H](O)C[C@@]21C [Comparative Example 2, 21-chloro-9α-fluoro-16β-methyl-1,4-pregnadiene-11β,17α-diol-3,20-dione 17a-methyl carbonate, reference compound] | 0.96 | 1.2 | 0.8 |
| CCCOC(=O)O[C@]1(C(=O)CCl)[C@@H](C)C[C@H]2[C@@H]3CC(=O)C4=CC(=O)C=C[C@]4(C)[C@@]3(F)[C@@H](O)C[C@@]21C [Example 6, 21-chloro-9α-fluoro-16β-methyl-1,4-pregnadiene-11β,17α-diol-3,6,20-trione 17a-propyl carbonate] | 0.74 | 0.24 | 3.1 |
| COC(=O)CCC(=O)O[C@]1(C(=O)CCl)[C@@H](C)C[C@H]2[C@@H]3CCC4=CC(=O)C=C[C@]4(C)[C@@]3(F)[C@@H](O)C[C@@]21C [Example 12, 21-chloro-9α-fluoro-16β-methyl-1,4-pregnadiene-11β,17α-diol-3,20-dione 17a-(6-methoxycarbonyl propionate)] | 1.3 | 0.072 | 18 |
| COC(=O)CCC(=O)O[C@]1(C(=O)CCl)[C@@H](C)C[C@H]2[C@@H]3CC(=O)C4=CC(=O)C=C[C@]4(C)[C@@]3(F)[C@@H](O)C[C@@]21C [Example 13, 21-chloro-9α-fluoro-16β-methyl-1,4-pregnadiene-11β,17α-diol-3,6,20-trione 17α-(β-methoxycarbonyl propionate)] | 1.0 | <0.01 | >100 |
| COC(=O)CCC(=O)O[C@]1(C(=O)CCl)[C@H](C)C[C@H]2[C@@H]3CCC4=CC(=O)C=C[C@]4(C)[C@@]3(F)[C@@H](O)C[C@@]21C [Example 14, 21-chloro-9α-fluoro-16α-msthyl-1,4-pregnadiene-11β,17α-diol-3,20-dione 17α-(β-methoxycarbonyl propionate)] | 0.2 | <0.01 | > 20 |
| CCOC(=O)CCCC(=O)O[C@]1(C(=O)CCl)[C@@H](C)C[C@H]2[C@@H]3CCC4=CC(=O)C=C[C@]4(C)[C@@]3(F)[C@@H](O)C[C@@]21C [Example 15, 21-chloro-9α-fluoro-16β-methyl-1,4-pregnadiene-11β,17α-diol-3,20-dione 17a-(y-ethoxycarbonyl butyrate)] | 0.68 | 0.012 | 57 |
| CCOC(=O)CCC(=O)O[C@]1(C(=O)CCl)[C@@H](C)C[C@H]2[C@@H]3CCC4=CC(=O)C=C[C@]4(C)[C@@]3(F)[C@@H](O)C[C@@]21C [Example 17, 21-chloro-9α-fluoro-16β-methyl-1,4-pregnadien-11β,17α-diol-3,20-dione 17α-(β-ethoxycarbonyl propionate)] | 0.56 | 0.007 | 80 |
